Results reported in US4225619A, “Substituted fluoracylresorcinols” (Boehringer Ingelheim GmBH, priority 1976, dated 1980).
≈ marks a conversion by molar mass, not a printed value.

Legend:
[1] = test system: Staphylococcus aureus SG 511; assay: Serial dilution test; type: cell-based; conditions: Staphylococcus aureus, SG511, 18-20 hours at 37° C., read-out: MIC, S.D.T., Staphylococcus aureus SG 511
Procedure: (§1) The inhibitory effect on bacteria and fungi was examined by the serial dilution test and the agar diffusion test (hole-test). As bacteria were used: Staphylococcus aureus SG 511, Streptococcus Aronson, Streptococcus pyogenes At CC 86 68; as fungi: Candida albicans AT CC 10231, Trichophyton mentagrophytes AT CC 9129 and Aspergillus niger.
1. Meat extract broth: for St. aureus SG 511
(§2) The age of the primary cultures is 24 hours for bacteria and 14 days for fungi. The standardization of the suspension of microorganisms is effected using a photometer according to Eppendorf (test tube .phi.14 mm, filter 546 nm) and a suspension for comparison consisting of barium sulfate, this suspension being created by adition of 3.0 ml of 1% barium chloride solution to 97 ml of 1% sulfuric acid. After the standardization the bacteria were further diluted to a concentration of 1:1000 by means of sodium chloride solution, the fungi were used in an undiluted state.
(§3) 40 mgm of the substance were put into a 10 ml measuring flask and filled up to the mark with the solvent (corresponds to a dilution of 1:250=4000 μg/ml). The further dilution series was standardized with distilled water or the respective solvent and the following substance concentrations were prepared: 1000; 250; 62.5 μg/ml.
(§4) The tubes were filled with 4.9 ml of the corresponding liquid nutrient medium. Then 0.1 ml of the substance dilution prepared above was added to each tube, so that the mentioned final concentrations were present. Finally each tube was inoculated with 0.1 ml of the standardized suspension of microorganisms. Control tests merely using the solvent are to be carried out simultaneously.
(§5) Bacteria were incubated at 37° C. for 18-20 hours and fungi at 27° C. for 7 days.
(§6) The measurement is carried out macroscopically defining the minimal inhibitory concentration (the lowest still microbiostatically effective concentration).

Streptococcus Aronson [2] = assay: Agar diffusion test (hole-test); type: cell-based; conditions: 18-20 hours at 37° C., read-out: MIC, A.D.T., Streptococcus Aronson
Procedure: as §1
(§7) 2. Glucose agar: for Sc. Aronson and St. pyogenes Recipe see meat extract agar. After sterilization 1 weight percent of glucose is added as a sterile 50% solution.
as §2, with “addition” for “adition”, “St. aureus SG 511 was” for “the bacteria were further”, “diluted” for “diluted to a concentration of”, “1:1000 and Sc. pyogenes and Aronson 1:100” for “1:1000”, “solution. The” for “solution, the”
(§8) 40 mgm of the substance were put into a 10 ml measuring flask and filled up to the mark with the solvent (corresponds to a dilution of 1:250=4000 μg/ml).
(§9) The dilutions to the concentrations under test were effected with distilled water or the respective solvent.
(§10) 19 ml of the nutrient medium were filled into sterile Petri dishes of a diameter of 8 cm and dried. Subsequently the agar plates were charged with 4 ml of seed agar. 100 ml of seed agar contain 1.25 ml of the suspension of microorganisms, an agar plate thus containing 0.05 ml of the suspension of microorganisms. After solidification of the agar, 5 holes of a diameter of 5 mm were punched into the plates and filled with 0.05 ml of the correspondingly concentrated substance solution.
(§11) Control tests merely using the solvent are to be carried out simultaneously.
as §5
(§12) The diameter of the area of inhibition in mm was measured after having deducted the diameter of the hole.

[3] = test system: Streptococcus pyogenes At CC 86 68; assay: Agar diffusion test (hole-test); type: cell-based; conditions: ATCC8668, 18-20 hours at 37° C., read-out: MIC, A.D.T., Streptococcus pyogenes
Procedure: as §1, §7
as §2, with “addition” for “adition”, “St. aureus SG 511 was” for “the bacteria were further”, “diluted” for “diluted to a concentration of”, “1:1000 and Sc. pyogenes and Aronson 1:100” for “1:1000”, “solution. The” for “solution, the”
as §8, §9, §10, §11, §5, §12

Corynebacterium acnes = assay: Serial dilution test for Corynebacterium acnes; type: cell-based; conditions: for MIC: Cutibacterium acnes, 37° C. for 48 hours, read-out: MIC, S.D.T., Corynebacterium acnes
Procedure: Serial dilution test for Corynebacterium acnes and Pityrosporum ovale Nutrient medium
For Corynebacterium acnes: thioglycolate-broth for Pityrosporum ovale: Littmann's broth, 5 ml per tube.
Suspension of microorganisms in 0.9% sodium chloride solution, standardized using a photometer according to Eppendorf by means of a suspension for comparison consisting of barium sulfate, for Corynebacterium acnes in a dilution of 1:100, for Pityrosporum ovale in an undiluted state. 0.1 ml of the suspensions was used per test tube. Dimethyl sulfoxide served as a solvent for the substances.
The suspension with Corynebacteria acnes was incubated at 37° C. for 48 hours, the suspension of Pityrosporum ovale at 27° C. for 7 days. The reading was effected by macroscopic evaluation of the growth of microorganisms and registration of the minimal inhibitory concentration.

Streptococcus Aronson [4] = assay: Serial dilution test; type: cell-based; conditions: for MIC: Streptococcus, 18-20 hours at 37° C., read-out: MIC, S.D.T., Streptococcus Aronson
Procedure: as §1
(§13) 2. Glucose broth: for Sc. Aronson and St. pyogenes Recipe see meat extract broth. After sterilization 1 weight percent of glucose is added as a sterile 50% solution.
as §2, §3, §4, §5, §6

[5] = test system: Streptococcus pyogenes At CC 86 68; assay: Serial dilution test; type: cell-based; conditions: Streptococcus pyogenes, ATCC8668, 18-20 hours at 37° C., read-out: MIC, S.D.T., Streptococcus pyogenes
Procedure: as §1, §13, §2, §3, §4, §5, §6

[6] = test system: Staphylococcus aureus SG 511; assay: Agar diffusion test (hole-test); type: cell-based; conditions: SG511, 18-20 hours at 37° C., read-out: MIC, A.D.T., Staphylococcus aureus SG 511
Procedure: as §1
1. Meat extract agar: for St. aureus SG 511
as §2, with “addition” for “adition”, “St. aureus SG 511 was” for “the bacteria were further”, “diluted” for “diluted to a concentration of”, “1:1000 and Sc. pyogenes and Aronson 1:100” for “1:1000”, “solution. The” for “solution, the”
as §8, §9, §10, §11, §5, §12

HeLa-cell culture = assay: Inhibition of HeLa cell cultures; type: cell-based; conditions: Homo sapiens, 72 h, 37° C. for 3 days, 5% carbon dioxide; for IC50: read-out: ED50, HeLa cell culture; for minimal effective concentration: read-out: Minimal inhibitory concentration, HeLa cell culture
Procedure: Measurement of the inhibition of cell cultures
HeLa-cell culture was treated with trypsin and adjusted to a cell number of 150,000 cells/ml of fresh medium. The substance was always dissolved in the same quantity of dimethyl sulfoxide and then further diluted with growth medium. 0.1 ml of the substance-dilutions were added to each well of microtiter plates and then 0.2 ml of cell suspension were added (4 wells per dilution). Several growth controls containing 0.1 ml of growth medium instead of 0.1 ml of substance dilution were put up. After careful mixing, the cultures were incubated at 37° C. for 3 days in a 5% carbon dioxide atmosphere. The reading was effected in comparison with these controls. The results were given as the percentage of the deficiency and degeneration compared to the growth control. […] The statements are referred to μg of substance per ml of total medium.

[7] = target: glucose-6-phosphate-dehydrogenase; assay: Inhibition of glucose-6-phosphate-dehydrogenase (G6PDH); type: biochemical
Procedure: Measurement of the inhibition of the glucose-6-phosphatedehydrogenase
The equilibrium was observed:
Glucose-6-phosphate+NADP^+ G6-DH gluconic
acid-6-phosphate+NADPH+H^+
(NADP=nicotinamide-adenine-dinycleotide-phosphate, G6P-DH=gluconic acid-6-phosphate-dehydrogenase)
The formation velocity of NADPH is a measure for the enzyme activity; it may be observed by means of the extinction increase at 340, 334 or 366 nm per unit of time.
0.025 ml of glucose-6-phosphate-dehydrogenase (Boehringer Mannheim) were filled up to 10 ml of distilled water (solution I). 100 mgm of nicotinamide-adenine-dinucleotide-phosphate were dissolved in 13 ml of distilled water (solution II). 47.2 mgm of glucose-6-phosphate were dissolved in further 10 ml of distilled water (solution 3). Simultaneously a buffer solution (solution IV) was prepared as follows: 0.28 gm of triethanolamine-hydrochloride and 1.461 gm of ethylene diaminotetraacetic acid-disodium salt were dissolved in 1 liter of distilled water and adjusted to a pH of 7.6 with sodium hydroxide solution. The substance under test was dissolved in dimethyl formamide or ethanol (solution V). Tested concentrations: 50; 25; 12.5; 6.25; 3.125; 1.56 and 0.78 μg/ml.
0.1 ml of solution I, 0.1 ml of solution II, 2.67 ml of solution IV and 0.03 ml of solution V were mixed and kept at 25° C. for 5 minutes. Then 0.1 ml of solution III was added, mixed and the alteration of extinction was determined spectrophotometrically at 366 nm for 3 minutes.
0.1 ml of solution I, 0.1 ml of solution II, 2.67 ml of solution IV and 0.03 ml of solution V were mixed and kept at 37° C. for 60 minutes. Then 0.1 ml of solution III was added, mixed and the alteration of extinction was measured spectrophotometrically at 366 nm for 3 minutes.
The inhibitory values were calculated from the average values of three measurements (alteration of extinction per minute) compared with controls, which received the pure solvent as the inhibitory solution. Then the ED50 was calculated according to Reed and Muench from the inhibitory values for the various concentrations.

[8] = reduced growth at this concentration

| Structure (SMILES) | MIC [1] | MIC (Streptococcus Aronson [2]) | MIC [3] | MIC (Corynebacterium acnes) | MIC (Streptococcus Aronson [4]) | Concentration with reduced growth (value in brackets), S.D.T., Streptococcus Aronson (Streptococcus Aronson [4]; [8]) | MIC [5] | MIC [6] | IC50 (HeLa-cell culture) | minimal effective concentration (HeLa-cell culture) | Concentration with reduced growth (value in brackets), S.D.T., Corynebacterium acnes (Corynebacterium acnes; [8]) | G6PDH-inhibition Ed50, Immediate Inhibition ([7]; 25° C. for 5 minutes preincubation) | G6PDH-inhibition Ed50, Inhibition of Incubation ([7]; 37° C. for 60 minutes preincubation) |
| --- | --- | --- | --- | --- | --- | --- | --- | --- | --- | --- | --- | --- | --- |
| CCCCCCCCC(C)c1c(O)ccc(C(=O)C(F)(F)F)c1O (stereo not shown) [M] | 1.25 µg/mL (≈ 3.61 µM) | ≤ 15.6 µg/mL | ≤ 15.6 µg/mL | 0.31 µg/mL (≈ 0.895 µM) | 20 µg/mL (≈ 57.7 µM) | 1.25 µg/mL | 1.25 µg/mL (≈ 3.61 µM) | 250 µg/mL (≈ 722 µM) |  |  |  |  |  |
| O=C(c1ccc(O)c(C2CCCC2)c1O)C(F)(F)F [N, 2,4-Dihydroxy-3-cyclopentyl-trifluoroacetophenone] | 1.25 µg/mL (≈ 4.56 µM) | ≤ 15.6 µg/mL | 62.5 µg/mL (≈ 228 µM) | 0.31 µg/mL (≈ 1.13 µM) | 1.25 µg/mL (≈ 4.56 µM) |  | 0.31 µg/mL (≈ 1.13 µM) | ≤ 15.6 µg/mL | 5.32 µg/mL (≈ 19.4 µM) | 3.13 µg/mL |  |  |  |
| O=C(c1ccc(O)c(C2CCCCCC2)c1O)C(F)(F)F [O, 2,4-Dihydroxy-3-cycloheptyl-trifluoroacetophenone] | 0.31 µg/mL (≈ 1.03 µM) | ≤ 15.6 µg/mL | ≤ 15.6 µg/mL | 1.25 µg/mL (≈ 4.14 µM) | 0.31 µg/mL (≈ 1.03 µM) |  | 0.08 µg/mL (≈ 0.265 µM) | ≤ 15.6 µg/mL |  |  | 0.31 µg/mL |  |  |
| CCc1cc(C(=O)C(F)(F)F)c(O)c(Cc2c(O)c(CC)cc(C(=O)C(F)(F)F)c2O)c1O [R, Methylene-bis-(2,6-dihydroxy-3-ethyl-5-trifluoro-acetyl)-benzene] | 0.08 µg/mL (≈ 0.167 µM) | ≤ 15.6 µg/mL | ≤ 15.6 µg/mL | 0.005 µg/mL (≈ 0.0104 µM) | 0.31 µg/mL (≈ 0.645 µM) |  | 0.005 µg/mL (≈ 0.0104 µM) | ≤ 15.6 µg/mL |  |  |  |  |  |
| Cc1c(O)c(Cc2cc(C(=O)C(F)(F)F)c(O)c(C)c2O)cc(C(=O)C(F)(F)F)c1O [S, Methylene-bis-(2,4-dihydroxy-3-methyl-5-trifluoro-acetyl)-benzene] | 1.25 µg/mL (≈ 2.76 µM) | ≤ 15.6 µg/mL | ≤ 15.6 µg/mL | 0.31 µg/mL (≈ 0.685 µM) | 1.25 µg/mL (≈ 2.76 µM) |  | 1.25 µg/mL (≈ 2.76 µM) | ≤ 15.6 µg/mL | 3.8 µg/mL (≈ 8.4 µM) | ≤ 0.78 µg/mL |  |  |  |
| CC(C)c1c(O)c(Cc2cc(C(=O)C(F)(F)F)c(O)c(C(C)C)c2O)cc(C(=O)C(F)(F)F)c1O [Z, Methylene-bis-(2,4-dihydroxy-3-isopropyl-5-trifluoro-acetyl)-benzene] |  |  |  |  |  |  |  |  |  |  |  | 0.58 µg/mL | 0.13 µg/mL |
